Test results as given in patent US20240082184A1, “IMPROVED TREATMENT FOR GLOBOID CELL LEUKODSYTROPHY OR KRABBE DISEASE” (priority 2021, published 2024).

Key:
Format in all cases: in vivo
[1] = system: GALC−/− mice; assay: Immunofluorescence (immunostaining) of brain sections for PLP, MFI; conditions: cerebellum and corpus callosum, oral, 15 days
Procedure: After 2 weeks of treatment, mice were anesthetized and perfused with PBS (pH 7.4) and then with 4% (w/v) paraformaldehyde solution in PBS. […] Briefly, brains were incubated in PBS containing 0.05% Tween 20 (PBST) and 10% sucrose for 3 h and then 30% sucrose overnight at 4° C. Hemisected brains was then embedded in O.C.T (Tissue Tech) at −80° C. and processed for conventional cryosectioning. Frozen cerebellar and corpus callosum sections (40 micron thick) were treated with cold ethanol (−20° C.) followed by two rinses in PBS, blocking with 3% bovine serum albumin in PBST and labeling with anti-PLP antibody. After three washes in PBST, sections were further incubated with Cy5 (Jackson ImmunoResearch Laboratories, Inc.). The samples were mounted and observed under the Olympus BX41 fluorescent microscope equipped with a Hamamatsu ORCA-03G camera. Captured images were calibrated with the scale bar and then opened in ImageJ software for further quantification analysis. […] The final MFI was analyzed after subtracting the value with the background signal of respective images.
DAPI was used to visualize nucleus. Mean fluorescence intensity (MFI) of PLP was quantified (C, cerebellum; D, corpus callosum) in two different sections of each of five mice (n=5) per group. […]

[2] = system: GALC−/− mice; assay: Luxol fast blue (LFB) staining for myelin; conditions: cerebellum and corpus callosum, oral, 15 days
Source text: Cerebellar and corpus callosum sections of paraformaldehyde-fixed brain tissues were stained with Luxol fast blue for myelin as described elsewhere. […] FIG. 5 similarly depicts luxol fast blue (LFB) staining of myelin in the cerebellum (A) and corpus callosum (B) of GALC^−/− mice following identical treatment. Results represent analysis of two different sections of each of five mice (n=5) per group. […] FIG. 13 similarly depicts luxol fast blue (LFB) staining of myelin in the cerebellum (A) and corpus callosum (B) of GALC^−/− mice following identical treatment. Results represent analysis of two different sections of each of five mice (n=5) per group.

[3] = system: GALC−/− mice; assay: Open field locomotor activity; conditions: oral, 15 days
Procedure: The open field test was conducted for analyzing general motor activities of mice. Locomotor activities were monitored by open field performance and footprint analysis as described in previous studies. […] Mice were placed in the center of a square wooden open field arena (40×40 cm, 30 cm high walls) and allowed to explore freely for 5 min. The movements of the mice were recorded using a camera linked to the Noldus system and EthoVisionXT software. Several parameters including velocity, total distance moved, movement/center point frequency, body elongation, etc. were analyzed to assess the general locomotor activity.
Following 15 days of treatment, open field locomotor activities were measured. […] Parameters related to movement of animals were obtained from the software and presented as velocity center point (B), distance moved center point (C), movement-center point frequency (D), and body elongation (E).
Locomotor activity was monitored as in Example 5. Following 15 days of treatment, open field locomotor activities were measured. […] Parameters related to movement of animals were obtained from the software and presented as velocity center point (B), distance moved center point (C), movement-center point frequency (D), and body elongation (E).

[4] = system: GALC−/− mice; assay: Lifespan (percentage of survival, Kaplan-Meier plot); conditions: oral
Source text: Heterozygous animals were used only for breeding purposes and were not used in the study. Animal maintaining and experiments were in accordance with National Institute of Health guidelines and were approved by the Institutional Animal Care and Use committee of the Rush University of Medical Center, Chicago, IL. Treated and untreated mice were allowed to survive humanely as long as possible. When a mouse reached a moribund stage, it was sacrificed.
As discussed below, after 2 weeks of oral feeding, several parameters were monitored including locomotor activity followed by examining myelin status and glial activation in cerebellum and corpus callosum. Longevity of GALC^−/− mice after drug treatment was also examined. In that case, GALC^−/− mice were treated with the drugs daily until mice reached the moribund stage.
Mice were treated continually until they reached the moribund stage at which point they were humanely sacrificed.

[5] = system: GALC−/− mice; assay: Levels of myelin proteins PLP and MBP in brain by Western blot; conditions: gemfibrozil 8 mg/kg/d alone or with vitamin A 150 IU/kg/d
[6] = system: GALC−/− mice; assay: Astroglial activation: GFAP and iNOS levels in brain by Western blot; conditions: gemfibrozil 8 mg/kg/d alone or with vitamin A 150 IU/kg/d, oral, 15 days
[7] = cerebellum, oral gavage, 15 days from 10 d of age, FIG. 2
[8] = corpus callosum, oral, 15 days, FIG. 3

O=C(O)C=Cc1ccccc1 [cinnamic acid]
myelin status by PLP immunostaining (MFI of PLP) ([1]; cinnamic acid 25 and 50 mg/kg/day, FIG. 12): protecting myelin | myelin status by luxol fast blue (LFB) staining ([2]; cinnamic acid 25 and 50 mg/kg/day, FIG. 13): protection of myelin | motor activity in open field versus vehicle treatment ([3]; cinnamic acid 25 and 50 mg/kg/day, FIG. 16): increased | lifespan (percentage of survival) ([4]; cinnamic acid 25 and 50 mg/kg/day, until moribund stage, FIG. 17): increases the lifespan

Cc1ccc(C)c(OCCCC(C)(C)C(=O)O)c1 [gemfibrozil]
level of MBP (MBP/Actin relative to control) [5, 7]: significantly increased | level of PLP (PLP/Actin relative to control) [5, 7]: significantly increased | level of MBP (MBP/Actin relative to control) [5, 8]: significantly increased | level of PLP (PLP/Actin relative to control) [5, 8]: significantly increased | myelin status by PLP immunostaining (MFI of PLP) ([1]; gemfibrozil 8 mg/kg/d alone or with vitamin A 150 IU/kg/d, FIG. 4): protecting myelin | myelin status by luxol fast blue (LFB) staining ([2]; gemfibrozil 8 mg/kg/d alone or with vitamin A 150 IU/kg/d, FIG. 5): protection of myelin | level of GFAP (GFAP/Actin relative to control) ([6]; cerebellum, FIG. 6): significantly reduced | level of iNOS (iNOS/Actin relative to control) ([6]; cerebellum, FIG. 6): significantly reduced | level of GFAP (GFAP/Actin relative to control) ([6]; corpus callosum, FIG. 7): significantly reduced | level of iNOS (iNOS/Actin relative to control) ([6]; corpus callosum, FIG. 7): significantly reduced | motor activity in open field versus vehicle treatment ([3]; gemfibrozil 8 mg/kg/d alone or with vitamin A 150 IU/kg/d, FIG. 8): increased | lifespan (percentage of survival) ([4]; gemfibrozil 8 mg/kg/d alone or with vitamin A 150 IU/kg/d, daily until moribund stage, FIG. 9): increase the lifespan
